# In US20240033244A1, “COMPOSITIONS AND METHODS FOR INHIBITING YTHDF1” (SHANGHAI INSTITUTE OF MATERIA MEDICA, CHINESE ACADEMY OF …, priority 2020, published 2024):
# pKd: −log10 of the molar value.
# Key:
# YTHDF1 (361-559) [1] = target: T1, YTHDF1 (361-559) (Homo sapiens, UniProt Q9BYJ9); experiment: Isothermal Titration Calorimetry (ITC); format: binding; conditions: 25° C.
# T1 construct: GST (N, cleaved yes); made in house; host or cells: E. coli BL21 (DE3)
# T1 sequence (Q9BYJ9 with tags, fused parts or gaps): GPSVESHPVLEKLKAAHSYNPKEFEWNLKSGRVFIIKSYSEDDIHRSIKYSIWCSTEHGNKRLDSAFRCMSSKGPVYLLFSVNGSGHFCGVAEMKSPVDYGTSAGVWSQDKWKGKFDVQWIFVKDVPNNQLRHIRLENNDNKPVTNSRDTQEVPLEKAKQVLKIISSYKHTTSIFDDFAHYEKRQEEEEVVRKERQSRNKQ
# Protocol: Purified YTHDF1 (361-559) was dialyzed at 4° C. overnight in dialysis buffer (20 mM Hepes (pH 7.4) and 200 mM NaCl). Then dialyzed protein was diluted to 50 μM with dialysis buffer. […] Isothermal titration calorimetry (ITC) was conducted on a Microcal ITC 200 isothermal titration calorimeter (GE Healthcare) at 25° C. 200 μL 50 μM YTHDF1 (361-559) was filled in the sample cell and constantly stirred at 750 rpm; 40 μL 1 mM SAA was filled in the syringe. […] Then in order to make the titration effect more obvious, the nineteen […] injections were changed after calculation into five 2.5 μL injections followed by fourteen 1.9 μL injections. […] The experimental data was analyzed via Microcal ORIGIN (v7.0) software (Microcal Software).
# Then, the binding affinity between SAA and YTHDF1 was evaluated. The Isothermal Titration Calorimetry (ITC) assay was performed to accurately test the equilibrium dissociation constants (Kd) between YTHDF1 and SAA. The ITC assay was conducted on a Microcal iTC200 isothermal titration calorimeter (GE Healthcare) for three times independently. Briefly, freshly purified YTHDF1 (50 μM) was titrated with 1 mM SAA at 25° C. in a buffer comprising 20 mM Hepes (pH 7.4) and 200 mM NaCl.
# YTHDF1 (361-559) [2] = target: T1, YTHDF1 (361-559); experiment: SPR binding assay
# Protocol: SPR binding assay was conducted at 25° C. on the Biacore T200 instrument (GE Healthcare). YTHDF1 (361-559) was covalently immobilized on a CM5 chip via standard amine-coupling procedure in the condition of 10 mM sodium acetate (pH 5.5).
# YTHDF1 in 293T cells = target: T2, YTHDF1 in 293T cells (Homo sapiens, UniProt Q9BYJ9); experiment: Cellular thermal shift assay (CETSA) in 293T cells; format: cell-based; conditions: 100 μM SAA for 4 hours
# T2 construct: endogenous in cells; host or cells: 293T (ATCC)
# T2 sequence (Q9BYJ9 whole entry): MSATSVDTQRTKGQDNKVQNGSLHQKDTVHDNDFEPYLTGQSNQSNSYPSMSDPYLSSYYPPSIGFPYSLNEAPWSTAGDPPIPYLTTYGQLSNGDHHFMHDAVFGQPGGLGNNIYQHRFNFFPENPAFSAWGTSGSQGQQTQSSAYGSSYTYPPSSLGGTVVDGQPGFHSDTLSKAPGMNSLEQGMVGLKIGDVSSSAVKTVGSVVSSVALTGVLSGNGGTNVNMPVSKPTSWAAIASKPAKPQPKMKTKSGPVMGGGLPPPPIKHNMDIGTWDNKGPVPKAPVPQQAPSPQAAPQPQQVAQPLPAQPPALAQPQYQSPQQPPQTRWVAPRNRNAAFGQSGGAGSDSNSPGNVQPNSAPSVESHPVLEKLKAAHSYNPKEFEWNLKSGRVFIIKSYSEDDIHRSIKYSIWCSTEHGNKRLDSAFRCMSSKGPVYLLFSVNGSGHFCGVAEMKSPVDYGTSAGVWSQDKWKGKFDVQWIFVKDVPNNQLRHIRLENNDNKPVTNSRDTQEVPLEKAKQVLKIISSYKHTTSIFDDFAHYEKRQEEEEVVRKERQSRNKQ
# Protocol: The cellular thermal shift assay (CETSA) was conducted according to the protocol reported previously. 293T cell line (ATCC) used in the assay was cultured at 37° C., 5% CO2, in DMEM culture medium (Life Technologies) containing 10% fetal calf serum (Gibco, U.S.A.), 1% penicillin/streptomycin (Life Technologies). 293T cells were collected after incubated with PBS buffer as control or 100 μM SAA for 4 hours and equally divided into twelve parts, respectively. The divided parts were heated under series of temperature range from 39° C. to 59° C. for 3 minutes and cooled at 4° C. for 3 minutes immediately. Then, the cells were lysed via freeze-thawing with liquid nitrogen and the protein samples were collected by centrifugation. Though adding in SDS loading and boiling at 99° C. for 5 minutes, the samples were prepared for western blot detection. In the western blot assays, GAPDH was used as the internal reference. And the quantitative analysis of the results of the assay was performed via ImageJ software.
# Further, the binding of SAA to YTHDF1 in cells was also examined. Cellular thermal shift (CETSA) assay was performed with 293T cell line, which was collected for heating at temperatures as indicated. After incubating the cells with 100 μM SAA for 4 hours, YTHDF1 protein in the incubated 293T cells were examined with western blot. […]
# [3] = system: tumor infiltrating T cells; experiment: Flow cytometry of exhaustion markers on tumor infiltrating T cells; format: in vivo, mouse; conditions: 14 days after tumor inoculation
# Protocol: For flow cytometry analysis and DCs sorting, tumors, draining lymph nodes were gathered from mice and digested with 100 U/mL collagenase IV and 20 μg/mL DNase I at 37° C. for 40 min. Digestion was stopped by FACS buffer (PBS contains 2% FBS and 1 mM EDTA) and samples were filtered through 70-μm cell strainer. Samples were stained by specific antibodies in FACS buffer on ice for 30 min. Antibody information was described in Table 1 below. All samples were washed with FACS buffer after staining, cells were analyzed on BD Fortessa and sorted by AriaIII.
# In addition, terminally exhausted T cells (PD-1 and Tim-3 double positive cells) were assessed 14 days after tumor inoculation with SAA treatment, and it was observed that the frequency of these tumor infiltrating terminally exhausted T cells (PD-1^+Tim-3^+) decreased in SAA treated mice (FIG. 18b), confirming the enhanced anti-tumor activity.
smiles,measurement,setting,value
"O=C(/C=C/c1ccc(O)c(O)c1/C=C/c1ccc(O)c(O)c1)O[C@H](Cc1ccc(O)c(O)c1)C(=O)O [SAA, Salvianolic Acid A]",entropy change ΔS,YTHDF1 (361-559) [1],13.6 cal/mol/deg
same,pKd,YTHDF1 (361-559) [1]; 50 μM YTHDF1 titrated with 1 mM SAA,5.24
same,pKd,YTHDF1 (361-559) [2],5.60
same,CETSA curve shift to the right (YTHDF1 stability),YTHDF1 in 293T cells,about 2 degrees
same,CXCR5 expression of PD-1low population,[3],much more CXCR5 than DMSO group
same,frequency of tumor infiltrating terminally exhausted T cells (PD-1+Tim-3+),[3],decreased
